Laboratory results taken from patent US5939403A, “Keratan sulfate oligosaccharide fraction and pharmaceutical containing the same” (Seikagaku Corporation, priority 1994, dated 1999).

How the values were obtained:
[1] = tested on: carrageenin pleurisy; experiment: Carrageenin pleurisy model; type: in vivo, Female S.D. rats; settings: dexamethasone acetate 150 μg/kg s.c.; six hours
Description: The effect of the keratan sulfate oligosaccharide was examined with the carrageenin pleurisy model of rats which is generally used for evaluation of anti-inflammatory agents.
Female S.D. rats (n=37) of about 150 to 170 g weight were used for the test. The λ-carrageenin (Sigma) was dissolved in saline to a concentration of 2%, and the solution was filtered with a 0.8 μm filter. The carrageenin solution obtained was intrathoracically administered at 100 μl/animal to prepare the pleurisy model.
To the pleurisy model of rats (n=19) described above, the keratan sulfate tetrasaccharide (I) dissolved in PBS was subcutaneously (s.c.) administered in 20 mg/kg or 10 mg/kg dose. And as the positive control, steroid (dexamethasone acetate; Banyu Pharmaceutical) was subcutaneously administered to the eight rats described above in 150 μg/kg which was the clinical dose. As the negative control, PBS was subcutaneously administered to the 10 rats. Each administration was carried out immediately after the administration of carrageenin.
Each rat was anatomized six hours after the administration of λ-carrageenin. The thoracic cavity of the rats was opened to collect the retained pleural fluid using a 2-ml syringe with probe. After that, inside of the thoracic cavity was washed with 1 ml of saline, and the washing solution was recovered. The volume of the pleural fluid recovered with the syringe was determined, and the number of leukocyte (cell number) in the pleural fluid was determined by an automatic cytometer. The results are be shown in FIG. 8 and FIG. 9, respectively. In the figures, * and ** represent that they have the significant difference with p<0.05 and p<0.01, respectively (wherein "p" means a level of significance by the Duncan test).

[2] = tested on: foot edema reversed passive Arthus reaction; experiment: Foot edema reversed passive Arthus reaction; type: in vivo, Male Crj:SD rats
Description: The effect of the keratan sulfate oligosaccharide was examined on the foot edema reversed passive Arthus reaction of rats, which is a type III allergic inflammation model. That is, the rabbit antiovalbumin serum was subcutaneously administered to the planta of the rats which were previously subjected to the administration of the test substances, furthermore ovalbumin was administered by injection into the caudal vein thereof to induce inflammation (edema), and the inhibitory effect on edema of the test substances was examined.
Male Crj:SD rats of five weeks old were subjected to a fast of about 17 hours after a week period of quarantine, and, before inducing inflammation, subjected to the administration of the purified keratan sulfate tetrasaccharide (I) which was prepared in Example 1, indomethacin (Sigma; Lot No. 19F0018), or dexamethasone (Banyu Pharmaceutical); Decadron injection; Lot No. 8D307P) as the test substances, or saline (Otsuka Pharmaceutical; Lot No. K3H72) as the negative control. The keratan sulfate tetrasaccharide (I) and dexamethasone were dissolved in saline, respectively, and the indomethacin was dissolved in 0.5% sodium carboxymethylcellulose (CMC-Na; Wako Pure Chemical Industries; Lot No. PTN1418) in use. The volume of dose was 0.5 ml per 100 g weight in each test. Concerning the route of administration, the keratan sulfate tetrasaccharide (I), saline, and dexamethasone were administered from the caudal vein, and the indomethacin was orally administered. And the substances except for indomethacin were administered by the blind method.
The dose and administration schedule of each test substance were as follows. Each group consisted of five animals.
The rabbit antiovalbumin serum was subcutaneously administered to each of the rats described above on the planta thereof, and ovalbumin was further administered by injection into the caudal vein to induce inflammation foot edema. The antiserum used was prepared as follows. That is, to the regions of back of rabbits, 1 ml of the equivalently mixed solution (emulsion) of the saline containing 2% ovalbumin (10 mg per one animal, Egg Albumin 5×Cryst, Lot No. P93601; Seikagaku Corporation) and the Freund's complete adjuvant (FCA) was intradermally injected once a week three times totally to subject themselves to sensitization. About 34 days after the last sensitization, the blood was drawn to obtain the antiserum. The antibody titer of the antiserum obtained was determined by the double layer method. Namely, the determination was performed using the white precipitation reaction of the antiserum diluted with saline and the saline containing 0.1% ovalbumin (1 mg/ml) as the indicator. As a result, the antibody titer of the antiserum obtained was x2^7.
After the period which is designed for each group, each 0.1 ml of the sixfold diluted antiserum was subcutaneously administered to the planta of left rear foot of the rats which were subjected to the administration of each test substance. Then, the saline containing 0.5% ovalbumin (25 mg/5 ml/kg) was administered into the caudal vein to induce inflammation. The volume of the treated feet in each group was determined before inducing inflammation, and one, two, three and four hours after inducing inflammation by a foot volume determining device (TK-101, Unicom) to yield the foot edematization rate from the difference from the value before the induction, and the edematization inhibitory rate of the test substance administered group to the control group was calculated. In each edematization rate obtained, the difference between the averages was tested by the minimum significant difference test. The foot edematization rate and the edematization inhibitory rate of each administered group are shown in Table 9, and the foot edematization rate of the administered groups which was subjected to the administration of the agent at five minutes and at three hours before inducing inflammation are shown in FIG. 6 and FIG. 7, respectively. […]

With CC(=O)OCC(=O)[C@@]1(O)[C@H](C)C[C@H]2[C@@H]3CCC4=CC(=O)C=C[C@]4(C)[C@@]3(F)[C@@H](O)C[C@@]21C [Dexamethasone Acetate, dexamethasone acetate, reference compound] the “number of leukocyte in pleural fluid (FIG. 9)” value [1] was “significantly less than that in the control group” and the “quantity of pleural fluid (FIG. 8)” value [1] was “significantly less than that in the negative control group”.

In the case of C[C@@H]1C[C@H]2[C@@H]3CCC4=CC(=O)C=C[C@]4(C)[C@@]3(F)[C@@H](O)C[C@]2(C)[C@@]1(O)C(=O)CO [Dexamethasone, dexamethasone, reference compound], the “Inhibitory Rate” value ([2]; 1 Hour Later, dexamethasone 1 mg/kg i.v. at 3 hours before inducing edema) is reported as 47.8%, the “Edematization Rate” value ([2]; 1 Hour Later, dexamethasone 1 mg/kg i.v. at 3 hours before inducing edema, P < 0.01, control 40.9) is reported as 21.3 ± 3.1% and the “Inhibitory Rate” value ([2]; 2 Hours Later, dexamethasone 1 mg/kg i.v. at 3 hours before inducing edema) is reported as 31.7%. The “Edematization Rate” value ([2]; 2 Hours Later, dexamethasone 1 mg/kg i.v. at 3 hours before inducing edema, P < 0.01, control 46.3) was 31.6 ± 2.2%, the “Inhibitory Rate” value ([2]; 3 Hours Later, dexamethasone 1 mg/kg i.v. at 3 hours before inducing edema) was 39.9% and the “Edematization Rate” value ([2]; 3 Hours Later, dexamethasone 1 mg/kg i.v. at 3 hours before inducing edema, P < 0.01, control 51.2) was 30.7 ± 1.5%. For the same compound, the “Inhibitory Rate” value ([2]; 4 Hours Later, dexamethasone 1 mg/kg i.v. at 3 hours before inducing edema) was 58.1%, the “Edematization Rate” value ([2]; 4 Hours Later, dexamethasone 1 mg/kg i.v. at 3 hours before inducing edema, P < 0.01, control 44.9) was 18.8% and the “foot edematization rate, significance (result in words)” value ([2]; dexamethasone 1 mg/kg, three hours before) was “significantly low values were observed at any determination point between one and four hours after inducing inflammation”.

With COc1ccc2c(c1)c(CC(=O)O)c(C)n2C(=O)c1ccc(Cl)cc1 [Indomethacin, indomethacin, reference compound] the “Inhibitory Rate” value ([2]; 1 Hour Later, 5 mg/kg oral at 30 minutes before inducing edema) was 13.5%, the “Edematization Rate” value ([2]; 1 Hour Later, 5 mg/kg oral at 30 minutes before inducing edema, control 40.9) was 35.4 ± 1.6% and the “Inhibitory Rate” value ([2]; 2 Hours Later, 5 mg/kg oral at 30 minutes before inducing edema) was 17.5%. For the same compound, the “Edematization Rate” value ([2]; 2 Hours Later, 5 mg/kg oral at 30 minutes before inducing edema, P < 0.05, control 46.3) was 38.2 ± 2.9%, the “Inhibitory Rate” value ([2]; 3 Hours Later, 5 mg/kg oral at 30 minutes before inducing edema) was 9.0% and the “Edematization Rate” value ([2]; 3 Hours Later, 5 mg/kg oral at 30 minutes before inducing edema, control 51.2) was 46.4 ± 2.8%. The “Inhibitory Rate” value ([2]; 4 Hours Later, 5 mg/kg oral at 30 minutes before inducing edema) was 13.8%, the “Edematization Rate” value ([2]; 4 Hours Later, 5 mg/kg oral at 30 minutes before inducing edema, P < 0.05, control 44.9) was 38.7 ± 3.1% and the “foot edematization rate, significance (result in words)” value ([2]; indomethacin 5 mg/kg oral, 30 minutes before) was “significantly low values were observed after two hours and after four hours”.
